Measured values as given in paper PMC11744668, “2-Cyanopyrimidine-Containing Molecules for N-Terminal Selective Cyclization of Phage-Displayed Peptides” (ACS Chemical Biology, 2025).

Tests used:
[1] = Specificity of linker reaction with BCP peptide (nucleophilic residues, no internal cysteine); settings: 500 µM BCP, 550 µM linker, 50 mM NH4HCO3, 1.2 mM TCEP, pH 7.5, 4 h
Excerpt: While pCAmCP and mCAmCP gave efficient cyclization of the peptide fusion of sfGFP, we looked to further investigate the specificity of the reaction using peptide kinetic assays. To do this, we first established reactivity of the compounds with a model peptide (CGK-5, Figures 3A and S16) that was composed of two cysteines flanking a region tuned for solubility in buffer (GGKGG) and with a tryptophan residue on the C-terminus for UV absorbance. […] To test the specificity of the reaction for the N-terminal cysteine, we synthesized a peptide analogue (CGK-5Abu, Figures 3D–F and S17) that contained 2-aminobutyric acid in place of the N-terminal cysteine. […] Since these reactions occurred at 500 μM of peptide to allow for analysis on the HPLC, we envision this difference will likely be exaggerated when using lower peptide/protein concentrations. Although it is unlikely at neutral pH, the chloroacetamide moiety can possibly react with nucleophilic amino acids other than cysteine. To defuse this concern, we designed a peptide containing a variety of possibly nucleophilic residues (serine, arginine, tyrosine, histidine, and lysine, but not an internal cysteine) adjacent to the N-terminal cysteine (BCP, Figure S18) and let the peptide react with pCAmCP or mCAmCP. […]

CA5C-sfGFP = experiment: Cyclization of CA5C-sfGFP with linkers (LC-ESI-MS); settings: 100 μM linker, PBS pH 7.4, 1 mM TCEP; for cyclization of CA5C-sfGFP: 3 h, 22 °C (RT), 500 nM protein; for cyclization of CA5C-sfGFP, optimized (in words): 16 h
Experimental: The designed organic linkers were tested for their ability to cyclize a CA5C peptide expressed as an N-terminal fusion to sfGFP (CA5C-sfGFP). Following reduction of the protein with 1 mM TCEP for 30 min, 100 μM compounds were reacted with the reduced CA5C-sfGFP for 3 h in PBS (pH 7.4). Following the reaction, the protein was analyzed via electrospray ionization mass spectrometry (ESI-MS) analysis to determine the desired adduct and any potential side reactions that occurred. […] This is likely due to the electron withdrawing effects of the nitrogen atoms adjacent to the nitrile in the 2-cyanopyrimidine derivatives. […] Following previously established Bayesian deconvolution of the mass spectra,[23] protein masses from each reaction (MW = 28,399 Da) corresponded well with that of the expected cyclic product (MW = 28,399 Da). […] This observed mass matches a TCEP-conjugated product resulting from a previously reported competing phospha-Michael addition of TCEP to the acrylamide moiety.[24] This product has a TCEP-functionalized linker that is nonreactive toward the internal cysteine (Figure 2A,B). Following these initial studies, we then further optimized the cyclization of CA5C-sfGFP using pCAmCP and mCAmCP by varying the reaction time, temperature, and concentration of linkers (Figure 2C).
Purified CA5C-sfGFP was diluted to 500 nM in PBS (pH 7.4) containing 1 mM TCEP and left to incubate for 30 min at 37 °C. Linker (100 μM final concentration) or equivalent amounts of DMSO were then added to the solution, and it reacted at varying times (3 or 16 h) and temperatures (22 or 37 °C). All initial tests for reactivity were performed at 22 °C for 3 h, while linkers pCAmCP and mCAmCP were optimized with the additional conditions. The reaction mixtures were then concentrated and exchanged to ammonium bicarbonate (50 mM, pH 8.0) using an Amicon centrifugal filter (MWCO: 10 kDa). Samples were analyzed using a QExactive Orbitrap LC–MS System (Thermo Fisher) and deconvoluted using UniDec software.[23]

Compound	specificity of chloroacetamide toward nucleophilic residues other than cysteine (in words) [1]	cyclization of CA5C-sfGFP (CA5C-sfGFP) [%]	cyclization of CA5C-sfGFP, optimized (in words) (CA5C-sfGFP)
N#Cc1nccc(NC(=O)CCl)n1 [mCAmCP, 2-chloro-N-(2-cyanopyrimidin-4-yl)acetamide]	the chloroacetamide was left intact, with the only observed side reaction being the addition of TCEP to the chloroacetamide	~70	nearly complete cyclization of CA5C-sfGFP with no significant side reactions observed
N#Cc1ncc(NC(=O)CCl)cn1 [pCAmCP, 2-chloro-N-(2-cyanopyrimidin-5-yl)acetamide]	the chloroacetamide was left intact, with the only observed side reaction being the addition of TCEP to the chloroacetamide	50	nearly complete cyclization of CA5C-sfGFP with no significant side reactions observed
